These results are taken from ChEMBL document CHEMBL1157539, “Thousands of chemical starting points for antimalarial lead identification” (Nature, 2010).

The test system of the test is Plasmodium falciparum. In words: GSK_TCMDC: Inhibition of Plasmodium falciparum 3D7 in whole erythrocytes, using parasite LDH activity as an index of growth. The test is classed as functional, organism-based. As to conditions: Plasmodium falciparum, 3D7.
Turning to `O=[N+]([O-])c1ccc(-c2nc3cc(C4=NC5CCCCC5N4)ccc3[nH]2)cc1` (stereo not given), the XC50 was 0.691 µM.

Compound `O=C(c1cccc(-c2ccc(-c3nc4cc(F)ccc4[nH]3)s2)c1)N1CCCCC1CN1CCC(O)C1` (stereo not given) registered an XC50 of 0.715 µM.

`O=C(Nc1ccc(C(=O)Oc2ccc(-c3ccccc3)cc2)cc1)N[C@@H](Cc1ccc(O)cc1)C(=O)NC1CCN(Cc2ccc(O)cc2)C1` (stereo not given in full) showed an XC50 of 0.803 µM.

For the compound `CCN(CCCN1CCCCC1)c1cc(C)nc(Nc2cc(F)cc(F)c2)n1`, the XC50 worked out at 0.57 µM.

Compound `O=C(NCC1CCC(CNCCc2ccccc2)CC1)Nc1ccc(Cl)c(Cl)c1` (stereo not given) returned an XC50 of 0.745 µM.

`COc1ccc(NC(=O)/C=C/c2ccccc2Cl)cc1OCCN1CCC(NCc2ccccc2)CC1` came in with an XC50 of 0.352 µM.

Consider `Cc1[nH]c2ccccc2c1C1=CCN(CCCCC2(C)C(=O)Nc3cccc(F)c32)CC1` (stereo not given), for which the XC50 is 0.364 µM.

In turn, `Cc1ccc(CC(C)NCC(O)c2cccc(C(F)(F)F)c2)cc1F` (stereo not given) registered an XC50 of 0.916 µM.

For the compound `O=C(NC1CCN(CC2(c3ccccc3F)CCCC2)CC1)c1cc[nH]n1`, the XC50 was determined as 0.997 µM.

As for `CC1(C)CC(=O)c2c(O)cc(OCc3ccncc3)cc2O1`, the XC50 is 1.04 µM.

The compound `CNC(=O)c1cc(S(=O)(=O)Nc2ccc(OC)cc2)cs1` registered an XC50 of 1.13 µM.

As to `COc1ccc(S(=O)(=O)N2CCC(NS(=O)(=O)c3ccc(F)cc3)CC2)cc1`, the XC50 came out at 1.33 µM.

In turn, `CN1CCN(c2ccc3[nH]c(-c4ccc5[nH]c(-c6ccc([N+](=O)[O-])c(N)c6)nc5c4)nc3c2)CC1` displayed an XC50 of 0.105 µM.

For the compound `CCCN(Cc1ccc(OCC)cc1)Cc1cc(=O)c2cc(Cl)ccc2[nH]1`, the XC50 amounted to 1.26 µM.

`c1ccc2c(NCCCCCCCCCNc3c4ccccc4nc4ccccc34)c3ccccc3nc2c1` yielded an XC50 of 0.298 µM.

Turning to `Clc1cccc(CNC2CCN(CC3CCCCC3)CC2)c1`, the XC50 was determined as 0.912 µM.

As for `Cc1ccc2cc(C3NC(=O)c4ccccc4N3)c(Cl)nc2c1` (stereo not given), the XC50 worked out at 0.945 µM.

For `CN(C)Cc1cccc(-c2ccc(NC(=O)c3ccc4c(=O)n(C5CCCCC5)cnc4c3)cc2)c1`, the XC50 came out at 0.744 µM.

In turn, `O=C(NC1CCCC1)c1ccc(N2CCC(NCc3cc4cc(Cl)ccc4[nH]3)CC2)cc1` came in with an XC50 of 1.22 µM.

On to `CC1(CCCCN2CCC(c3c[nH]c4cnccc34)CC2)C(=O)Nc2cccc(Cl)c21` (stereo not given), for which the XC50 came out at 0.868 µM.

As for `CC(=O)Oc1c(Cl)c(C)nc(C)c1-c1ccc(Oc2ccc(Cl)cc2)cc1`, the XC50 was 0.0315 µM.

Consider `O=C(Nc1cccc(CN2CCCN(Cc3ccc(O)cc3)CC2)c1)c1cccc(C(F)(F)F)c1`, for which the XC50 came to 0.314 µM.

Take `Cc1cc(=O)[nH]c(-n2nc(C)cc2NC(=O)CC(c2ccccc2)c2ccccc2)n1`: the XC50 was 1.1 µM.

Consider `Cc1cccc2nc(-c3cccc(-c4ccc(NC(=O)C(=O)c5cccn5C)cc4)c3)[nH]c12`, for which the XC50 was determined as 0.375 µM.

Regarding `CC(C)(C)C1CCC(C(=O)c2ccc3ccccc3c2O)CC1` (stereo not given), the XC50 is 0.751 µM.

`COc1ccc(-c2nc(NC(=O)CS(=O)(=O)c3ccccc3)sc2C)cc1` gave an XC50 of 0.596 µM.

Compound `Cc1c(NC(=O)COc2ccc(Cl)cc2C(=O)c2cc(F)cc(C(F)(F)F)c2)ccc2ncsc12` returned an XC50 of 1.02 µM.

Regarding `CCCCCCN(CCCCCC)CC(O)c1c(OC)ccc2ccccc12` (stereo not given), the XC50 was found to be 0.567 µM.

Consider `O=C(NCc1cccs1)[C@H](Cc1ccccc1)Nc1ccnc(NCCc2ccc(F)cc2)n1`, for which the XC50 was 1.45 µM.

`c1cc(-c2ccc(CNCc3ccsc3)cc2)cc(-c2nc3ccccc3[nH]2)c1` returned an XC50 of 0.156 µM.

The compound `COc1ccc(C(=O)CCC(=O)N(Cc2ccc(-c3ccc(CNCCc4ccc(S(C)(=O)=O)cc4)cn3)cc2)C(C)CN(C)C)cc1F` (stereo not given) had an XC50 of 0.65 µM.

In turn, `Cc1cc(O)c(-c2ccc(Sc3ccc(Cl)cc3)cc2)c(C)n1` yielded an XC50 of 0.969 µM.

As for `Cc1ccc(NC(=O)NC2CCN(CCCCCNC(=O)C3CC3c3ccc(Cl)c(Cl)c3)CC2)cc1` (stereo not given), the XC50 was 0.54 µM.

The compound `O=C(/C=C/c1ccc(Cl)c(Cl)c1)NCCCCCN1CCCN(C(=S)Nc2cccc(Cl)c2)CC1` yielded an XC50 of 1.05 µM.

`COc1ccc2c(=O)c3ccc(OC)cc3[nH]c2c1` yielded an XC50 of 0.81 µM.
